Test results reported in ChEMBL document CHEMBL5724806, “Unraveling interindividual differences and functional consequences of gut microbial metabolism of immunosuppressants” (2024).

Columns and labels:
Type in all cases: ADME
[1] = (§1) The drug is tested on the gut metagenome community of A-06 with ENA study accession number: PRJEB31790 for biotransformation under microaerobic condition. The drug concentrations were measured over 7 timepoints collected between 0 and 12 hours of incubation by liquid-chromatography-coupled mass spectrometry (LC–MS); design: dose 5 uM, timepoint 0, 0.75, 1.5, 3, 6, 9, 12 hours; details: 5 µM
[2] = The drug is tested on Bacteroides xylanisolvens strain: HM 722 for biotransformation under anaerobic condition. The drug concentrations were measured over 6 timepoints collected between 0 and 12 hours of incubation by liquid-chromatography-coupled mass spectrometry (LC–MS); design: dose 5 uM, timepoint 0, 1.5, 3, 6, 9, 12 hours; details: 5 µM
[3] = as §1, with “A-01” for “A-06”; design: dose 5 uM, timepoint 0, 0.75, 1.5, 3, 6, 9, 12 hours; details: 5 µM
[4] = The drug is tested on Gemella morbillorum strain: DSM20572 for biotransformation under anaerobic condition. The drug concentrations were measured over 6 timepoints collected between 0 and 12 hours of incubation by liquid-chromatography-coupled mass spectrometry (LC–MS); design: dose 5 uM, timepoint 0, 1.5, 3, 6, 9, 12 hours; details: 5 µM
[5] = as §1, with “A-05” for “A-06”; design: dose 5 uM, timepoint 0, 0.75, 1.5, 3, 6, 9, 12 hours; details: 5 µM
[6] = The drug is tested on Bacteroides ovatus strain: ATCC 8483 for biotransformation under anaerobic condition. The drug concentrations were measured over 6 timepoints collected between 0 and 12 hours of incubation by liquid-chromatography-coupled mass spectrometry (LC–MS); design: dose 5 uM, timepoint 0, 1.5, 3, 6, 9, 12 hours; details: 5 µM
[7] = The drug is tested on Clostridium ramosum strain: DSM1402 for biotransformation under anaerobic condition. The drug concentrations were measured over 6 timepoints collected between 0 and 12 hours of incubation by liquid-chromatography-coupled mass spectrometry (LC–MS); design: dose 5 uM, timepoint 0, 1.5, 3, 6, 9, 12 hours; details: thomasclavelia ramosa, 5 µM
[8] = The drug is tested on Akkermansia muciniphila strain: DSM22959 for biotransformation under anaerobic condition. The drug concentrations were measured over 6 timepoints collected between 0 and 12 hours of incubation by liquid-chromatography-coupled mass spectrometry (LC–MS); design: dose 5 uM, timepoint 0, 1.5, 3, 6, 9, 12 hours; details: 5 µM
[9] = The drug is tested on Escherichia coli strain: DSM27469 for biotransformation under anaerobic condition. The drug concentrations were measured over 6 timepoints collected between 0 and 12 hours of incubation by liquid-chromatography-coupled mass spectrometry (LC–MS); design: dose 5 uM, timepoint 0, 1.5, 3, 6, 9, 12 hours; details: 5 µM
[10] = as §1, with “P-04” for “A-06”; design: dose 5 uM, timepoint 0, 0.75, 1.5, 3, 6, 9, 12 hours; details: 5 µM
[11] = The drug is tested on Streptococcus salivarius strain: DSM20560 for biotransformation under anaerobic condition. The drug concentrations were measured over 6 timepoints collected between 0 and 12 hours of incubation by liquid-chromatography-coupled mass spectrometry (LC–MS); design: dose 5 uM, timepoint 0, 1.5, 3, 6, 9, 12 hours; details: 5 µM
[12] = as §1, with “A-04” for “A-06”, “anaerobic” for “microaerobic”; design: dose 5 uM, timepoint 0, 0.75, 1.5, 3, 6, 9, 12 hours; details: 5 µM
[13] = The drug is tested on Alloscardovia omnicolens strain: DSM21503 for biotransformation under anaerobic condition. The drug concentrations were measured over 6 timepoints collected between 0 and 12 hours of incubation by liquid-chromatography-coupled mass spectrometry (LC–MS); design: dose 5 uM, timepoint 0, 1.5, 3, 6, 9, 12 hours; details: 5 µM
[14] = The drug is tested on Odoribacter splanchnicus strain: DSM20712 for biotransformation under anaerobic condition. The drug concentrations were measured over 6 timepoints collected between 0 and 12 hours of incubation by liquid-chromatography-coupled mass spectrometry (LC–MS); design: dose 5 uM, timepoint 0, 1.5, 3, 6, 9, 12 hours; details: 5 µM
[15] = The drug is tested on Alloscardovia omnicolens strain: DSM21503 for biotransformation under microaerobic condition. The drug concentrations were measured over 6 timepoints collected between 0 and 12 hours of incubation by liquid-chromatography-coupled mass spectrometry (LC–MS); design: dose 5 uM, timepoint 0, 1.5, 3, 6, 9, 12 hours; details: 5 µM
[16] = The drug is tested on Lactobacillus fermentum strain: DSM20052 for biotransformation under microaerobic condition. The drug concentrations were measured over 6 timepoints collected between 0 and 12 hours of incubation by liquid-chromatography-coupled mass spectrometry (LC–MS); design: dose 5 uM, timepoint 0, 1.5, 3, 6, 9, 12 hours; details: limosilactobacillus fermentum, 5 µM
[17] = The drug is tested on Streptococcus salivarius strain: DSM20560 for biotransformation under microaerobic condition. The drug concentrations were measured over 6 timepoints collected between 0 and 12 hours of incubation by liquid-chromatography-coupled mass spectrometry (LC–MS); design: dose 5 uM, timepoint 0, 1.5, 3, 6, 9, 12 hours; details: 5 µM
[18] = as §1, with “A-07” for “A-06”, “anaerobic” for “microaerobic”; design: dose 5 uM, timepoint 0, 0.75, 1.5, 3, 6, 9, 12 hours; details: 5 µM
[19] = as §1, with “P-01” for “A-06”; design: dose 5 uM, timepoint 0, 0.75, 1.5, 3, 6, 9, 12 hours; details: 5 µM
[20] = The drug is tested on Lactobacillus reuteri strain: DSM20016 for biotransformation under anaerobic condition. The drug concentrations were measured over 6 timepoints collected between 0 and 12 hours of incubation by liquid-chromatography-coupled mass spectrometry (LC–MS); design: dose 5 uM, timepoint 0, 1.5, 3, 6, 9, 12 hours; details: limosilactobacillus reuteri, 5 µM
[21] = The drug is tested on Eubacterium eligens strain: DSM3376 for biotransformation under anaerobic condition. The drug concentrations were measured over 6 timepoints collected between 0 and 12 hours of incubation by liquid-chromatography-coupled mass spectrometry (LC–MS); design: dose 5 uM, timepoint 0, 1.5, 3, 6, 9, 12 hours; details: lachnospira eligens, 5 µM
[22] = as §1, with “P-03” for “A-06”; design: dose 5 uM, timepoint 0, 0.75, 1.5, 3, 6, 9, 12 hours; details: 5 µM
[23] = as §1, with “A-07” for “A-06”; design: dose 5 uM, timepoint 0, 0.75, 1.5, 3, 6, 9, 12 hours; details: 5 µM
[24] = The drug is tested on Gemella haemolysans strain: DSM107751 for biotransformation under anaerobic condition. The drug concentrations were measured over 6 timepoints collected between 0 and 12 hours of incubation by liquid-chromatography-coupled mass spectrometry (LC–MS); design: dose 5 uM, timepoint 0, 1.5, 3, 6, 9, 12 hours; details: 5 µM
[25] = The drug is tested on Streptococcus mitis strain: DSM12643 for biotransformation under microaerobic condition. The drug concentrations were measured over 6 timepoints collected between 0 and 12 hours of incubation by liquid-chromatography-coupled mass spectrometry (LC–MS); design: dose 5 uM, timepoint 0, 1.5, 3, 6, 9, 12 hours; details: 5 µM
[26] = The drug is tested on Ruminococcus gnavus strain: ATCC29149 for biotransformation under anaerobic condition. The drug concentrations were measured over 6 timepoints collected between 0 and 12 hours of incubation by liquid-chromatography-coupled mass spectrometry (LC–MS); design: dose 5 uM, timepoint 0, 1.5, 3, 6, 9, 12 hours; details: mediterraneibacter gnavus, 5 µM
[27] = The drug is tested on Eubacterium hallii strain: DSM3353 for biotransformation under anaerobic condition. The drug concentrations were measured over 6 timepoints collected between 0 and 12 hours of incubation by liquid-chromatography-coupled mass spectrometry (LC–MS); design: dose 5 uM, timepoint 0, 1.5, 3, 6, 9, 12 hours; details: anaerobutyricum hallii, 5 µM
[28] = The drug is tested on Coprococcus comes strain: ATCC27758 for biotransformation under anaerobic condition. The drug concentrations were measured over 6 timepoints collected between 0 and 12 hours of incubation by liquid-chromatography-coupled mass spectrometry (LC–MS); design: dose 5 uM, timepoint 0, 1.5, 3, 6, 9, 12 hours; details: 5 µM
[29] = as §1, with “T-01” for “A-06”, “anaerobic” for “microaerobic”; design: dose 5 uM, timepoint 0, 0.75, 1.5, 3, 6, 9, 12 hours; details: 5 µM

Row | Bacterial Biotransformation [1] | Bacterial Biotransformation [2] | Bacterial Biotransformation [3] | Bacterial Biotransformation [4] | Bacterial Biotransformation [5] | Bacterial Biotransformation [6] | Bacterial Biotransformation [7] | Bacterial Biotransformation [8] | Bacterial Biotransformation [9] | Bacterial Biotransformation [10] | Bacterial Biotransformation [11] | Bacterial Biotransformation [12] | Bacterial Biotransformation [13] | Bacterial Biotransformation [14] | Bacterial Biotransformation [15] | Bacterial Biotransformation [16] | Bacterial Biotransformation [17] | Bacterial Biotransformation [18] | Bacterial Biotransformation [19] | Bacterial Biotransformation [20] | SMILES | further results
1 | Compound metabolized | Compound NOT metabolized | Compound NOT metabolized | Compound NOT metabolized | Compound metabolized | Compound NOT metabolized | Compound NOT metabolized | Compound NOT metabolized | Compound NOT metabolized | Compound NOT metabolized | Compound NOT metabolized | Compound metabolized | Compound NOT metabolized | Compound NOT metabolized | Compound NOT metabolized | Compound NOT metabolized | Compound NOT metabolized | Compound metabolized | Compound NOT metabolized | Compound NOT metabolized | C=CC[C@@H]1/C=C(\C)C[C@H](C)C[C@H](OC)[C@H]2O[C@@](O)(C(=O)C(=O)N3CCCC[C@H]3C(=O)O[C@H](/C(C)=C/[C@@H]3CC[C@@H](O)[C@H](OC)C3)[C@H](C)[C@@H](O)CC1=O)[C@H](C)C[C@@H]2OC.O [TACROLIMUS] | Bacterial Biotransformation [21]: Compound NOT metabolized; Bacterial Biotransformation [22]: Compound NOT metabolized; Bacterial Biotransformation [23]: Compound metabolized; Bacterial Biotransformation [24]: Compound NOT metabolized; Bacterial Biotransformation [25]: Compound NOT metabolized; Bacterial Biotransformation [26]: Compound NOT metabolized; Bacterial Biotransformation [27]: Compound metabolized; Bacterial Biotransformation [28]: Compound metabolized; Bacterial Biotransformation [29]: Compound metabolized
2 | Compound metabolized | Compound NOT metabolized | Compound metabolized | Compound NOT metabolized | Compound metabolized | Compound NOT metabolized | Compound NOT metabolized | Compound NOT metabolized | Compound NOT metabolized | Compound metabolized | Compound NOT metabolized | Compound metabolized | Compound NOT metabolized | Compound NOT metabolized | Compound NOT metabolized | Compound NOT metabolized | Compound NOT metabolized | Compound metabolized | Compound metabolized | Compound NOT metabolized | C[C@]12C=CC(=O)C=C1CC[C@@H]1[C@@H]2[C@@H](O)C[C@@]2(C)[C@H]1CC[C@]2(O)C(=O)CO [PREDNISOLONE] | Bacterial Biotransformation [21]: Compound NOT metabolized; Bacterial Biotransformation [22]: Compound metabolized; Bacterial Biotransformation [23]: Compound metabolized; Bacterial Biotransformation [24]: Compound NOT metabolized; Bacterial Biotransformation [25]: Compound NOT metabolized; Bacterial Biotransformation [26]: Compound metabolized; Bacterial Biotransformation [27]: Compound NOT metabolized; Bacterial Biotransformation [28]: Compound NOT metabolized; Bacterial Biotransformation [29]: Compound NOT metabolized
3 | Compound metabolized | Compound NOT metabolized | Compound metabolized | Compound NOT metabolized | Compound metabolized | Compound NOT metabolized | Compound NOT metabolized | Compound NOT metabolized | Compound NOT metabolized | Compound metabolized | Compound NOT metabolized | Compound metabolized | Compound NOT metabolized | Compound NOT metabolized | Compound NOT metabolized | Compound NOT metabolized | Compound NOT metabolized | Compound metabolized | Compound metabolized | Compound NOT metabolized | C[C@H]1C[C@@H]2[C@H]([C@@H](O)C[C@@]3(C)[C@H]2CC[C@]3(O)C(=O)CO)[C@@]2(C)C=CC(=O)C=C12 [METHYLPREDNISOLONE] | Bacterial Biotransformation [21]: Compound NOT metabolized; Bacterial Biotransformation [22]: Compound metabolized; Bacterial Biotransformation [23]: Compound metabolized; Bacterial Biotransformation [24]: Compound NOT metabolized; Bacterial Biotransformation [25]: Compound NOT metabolized; Bacterial Biotransformation [26]: Compound metabolized; Bacterial Biotransformation [27]: Compound NOT metabolized; Bacterial Biotransformation [28]: Compound NOT metabolized; Bacterial Biotransformation [29]: Compound NOT metabolized
